Values joined by “and” are separate entries in the source; they are usually repeats but may differ in a detail not shown here. Equal values may be shown once.
What was measured:
human T cells = experiment: T cell cytokine SFC response to cross-reactive CD4 epitopes (Tables 6-8); format: cell-based; details: for Total SFC: cross-reactive CD4 non-spike SARS-CoV-2 epitopes, all cytokines; for IFNg / IL5 / IL13: cross-reactive CD4 non-spike epitopes; for IFNg: IFNg spot forming cells; for IL5: IL5 spot forming cells; for IL13: IL13 spot forming cells
[1] = test system: SARS-CoV-2-specific CD8+ T cells (CD69+CD137+) in PBMC; format: cell-based, human; as to Magnitude of response: unit not given here; as to sum of response: unit not given here
[2] = test system: SARS-CoV-2-specific CD4+ T cells (OX40+CD137+) in PBMC; format: cell-based, human; details: CD4+ T cell epitopes identified by AIM assay; for Frequency of response (%): share of donors responding; for Magnitude by # of responding donors: sum of response per responding donor; for Sum of response: total response; as to Magnitude by # of responding donors: unit not given here; as to sum of response: unit not given here

245 (DDQIGYYRRATRRIR) [compound 245] was tested, and the “Total SFC” value (human T cells) was 787 SFC, the IFNg (human T cells) was 400 and the IL5 (human T cells) was 0. For the same substance, the IL13 (human T cells) was 120.
With 246 (DAALALLLLDRLNQL) [compound 246] the “Total SFC” value (human T cells) was 3813 SFC, the IFNg (human T cells) was 3520 and the IL5 (human T cells) was 0. For the same substance, the IL13 (human T cells) was 0.
With 247 (LLLLDRLNQLESKMS) [compound 247] the “Total SFC” value (human T cells) was 1053 SFC, the IFNg (human T cells) was 1053 and the IL5 (human T cells) was 0. The IL13 (human T cells) was 0.
248 (PSGTWLTYTGAIKLD) [compound 248] was tested, and the “Total SFC” value (human T cells) was 1227 SFC, the IFNg (human T cells) was 947 and the IL5 (human T cells) was 0. For the same substance, the IL13 (human T cells) was 0.
For 806 (SEETGTLIVNSVLLF) [compound 806], the “Total SFC” value (human T cells) was 267 SFC, the IFNg (human T cells) was 267 and the IL5 (human T cells) was 0. For the same substance, the IL13 (human T cells) was 0.
In the case of 807 (LAILTALRLCAYCCN) [compound 807], the “Total SFC” value (human T cells) is reported as 1800 SFC, the IFNg (human T cells) is reported as 1760 and the IL5 (human T cells) is reported as 0. For the same substance, the IL13 (human T cells) was 0.
820 (EEIAIILASFSASTS) [compound 820] was tested, and the “Total SFC” value (human T cells) was 13813 SFC, the IFNg (human T cells) was 7773 and the IL5 (human T cells) was 1587. It also gave an IL13 (human T cells) of 1507.
With 846 (YIINLIIKNLSKSLT) [compound 846] the “Total SFC” value (human T cells) was 1393 SFC, the IFNg (human T cells) was 1283 and the IL5 (human T cells) was 0. The IL13 (human T cells) was 0.
In the case of 847 (MKIILFLALITLATC) [compound 847], the “Total SFC” value (human T cells) is reported as 373 SFC, the IFNg (human T cells) is reported as 293 and the IL5 (human T cells) is reported as 0. It also gave an IL13 (human T cells) of 0.
With 848 (VKHVYQLRARSVSPK) [compound 848] the “Total SFC” value (human T cells) was 3640 SFC, the IFNg (human T cells) was 2947 and the IL5 (human T cells) was 227. For the same substance, the IL13 (human T cells) was 0.
In the case of 849 (LYSPIFLIVAAIVFI) [compound 849], the “Total SFC” value (human T cells) is reported as 520 SFC, the IFNg (human T cells) is reported as 400 and the IL5 (human T cells) is reported as 0. For the same substance, the IL13 (human T cells) was 0.
With AAISDYDYYR the “Frequency of positive response” value [1] was 100, the Magnitude of response [1] was 290 and the Sum of response [1] was 290.
In the case of AISDYDYYR, the “Frequency of positive response” value [1] is reported as 100, the Magnitude of response [1] is reported as 173 and the Sum of response [1] is reported as 173.
In the case of EILPVSMTK, the “Frequency of positive response” value [1] is reported as 25 and 50.
With EPVLKGVKL the “Frequency of positive response” value [1] was 20, the Magnitude of response [1] was 313 and the Sum of response [1] was 313.
HTTDPSFLGR was tested, and the “Frequency of positive response” value [1] was 50, the Magnitude of response [1] was 312 and the Sum of response [1] was 312.
With KAYNVTQAF the “Frequency of positive response” value [1] was 50 and 33.
In the case of KTFPPTEPKKDKKK, the “Frequency of positive response” value [1] is reported as 50, the Magnitude of response [1] is reported as 122 and the Sum of response [1] is reported as 122.
RLQSLQTY was tested, and the “Frequency of positive response” value [1] was 33, the Magnitude of response [1] was 142 and the Sum of response [1] was 142.
With SEPVLKGVKL the “Frequency of positive response” value [1] was 40, the Magnitude of response [1] was 251 and the Sum of response [1] was 501.
VTYVPAQEK was tested, and the “Frequency of positive response” value [1] was 33 and 25, the Magnitude of response [1] was 435 and 235 and the Sum of response [1] was 435 and 235.
For YKTFPPTEPK, the “Frequency of positive response” value [1] was 50, the Magnitude of response [1] was 139 and the Sum of response [1] was 139.
In the case of YQDVNCTEV, the “Frequency of positive response” value [1] is reported as 50, the Magnitude of response [1] is reported as 243 and the Sum of response [1] is reported as 243.
In the case of YVVDDPCPIHFYSKW, the “Frequency of response (%)” value [2] is reported as 36%, the “Magnitude by # of responding donors” value [2] is reported as 872 and the Sum of response [2] is reported as 3488.
For YYRRATRRIRGGDGK, the “Frequency of response (%)” value [2] was 23%, the “Magnitude by # of responding donors” value [2] was 197 and the Sum of response [2] was 592.
